The results in this text go back to US20240002397A1, “3-AMINO PYRROLIDINE AND PIPERIDINE MACROCYCLIC OREXIN RECEPTOR AGONISTS” (Merck Sharp & Dohme LLC, priority 2020, published 2024).

In the first assay the target is T1, human OX2R (Homo sapiens, UniProt O43614).
T1 sequence (O43614 1-444): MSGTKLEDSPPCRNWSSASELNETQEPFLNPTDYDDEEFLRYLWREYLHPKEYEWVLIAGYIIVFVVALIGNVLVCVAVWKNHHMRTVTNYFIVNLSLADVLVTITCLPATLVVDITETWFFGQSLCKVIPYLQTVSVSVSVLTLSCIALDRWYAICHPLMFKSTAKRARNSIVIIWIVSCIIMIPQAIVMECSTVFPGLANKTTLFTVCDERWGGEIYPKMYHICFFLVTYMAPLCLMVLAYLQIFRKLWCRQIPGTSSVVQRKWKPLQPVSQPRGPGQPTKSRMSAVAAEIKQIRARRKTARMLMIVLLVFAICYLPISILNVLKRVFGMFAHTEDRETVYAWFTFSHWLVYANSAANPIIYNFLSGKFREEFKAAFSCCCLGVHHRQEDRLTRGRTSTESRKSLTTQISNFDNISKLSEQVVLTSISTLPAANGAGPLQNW
As to the kind of experiment: IPOne (IP-1) orexin receptor agonist assay in CHO cells expressing human OX2R. As to conditions: CHO, hOX2R IP-One; percentage of mean max effect of a reference compound at 1 uM with 100% activity.
Description: In atypical experiment, the OX1 and OX2 receptor agonist activity is determined in accordance with the following general experimental method. Chinese hamster ovary (CHO) cells expressing human OX1R and/or the human OX2R were grown in Iscove's modified DMEM containing glutaMAX™, 1% G418, 100 U/mL penicillin, 100 μg/mL streptomycin and 10% heat-inactivated qualified fetal bovine serum (FBS). […] During this incubation, IP-one detection reagents were prepared (38:1:1 lysis buffer:D2:AB-cryptate reagents).
For each compound, data were fit to a four parameter logistic fit (ActivityBase software) and the EC50 was reported as the inflection point of the resulting curve.
Regarding `COC[C@@H]1C[C@H](NS(C)(=O)=O)C2COC3CCC(CC3)c3cc(C(F)(F)F)cc(n3)OCCCOC(=O)N21` (stereo partly shown) [Example 83, N-((2^1S,2^4S,5^2R,5^3S,5^5S)-5^5-(methoxymethyl)-6-oxo-1^4-(trifluoromethyl)-3,7,11-trioxa-1(2,6)-pyridina-5(2,1)-pyrrolidina-2(1,4)-cyclohexanacycloundecaphane-5^3-yl)methanesulfonamide], the Emax – broadly, the size of the effect at its maximum, as opposed to the concentration needed – is 102%. In turn, `C[C@@H]1C[C@H](NS(C)(=O)=O)C2COC3CCC(CC3)c3nc(ccc3C(F)(F)F)OCCCOC(=O)N21` (stereo partly shown) [Example 69, N-((2^1S,2^4S,5^2R,5^3S,5^5R)-5^5-methyl-6-oxo-1^3-(trifluoromethyl)-3,7,11-trioxa-1(2,6)-pyridina-5(2,1)-pyrrolidina-2(1,4)-cyclohexanacycloundecaphane-5^3-yl)methanesulfonamide] had an Emax of 94.7%. The same measure, in the same setting: next, `CS(=O)(=O)N[C@H]1C[C@@H](CO)N2C(=O)OCCCOc3cc(C(F)F)cc(n3)C3CCC(CC3)OCC12` (stereo partly shown) [Example 97, N-((2^1S,2^4S,5^2R,5^3S,5^5S)-1^4-(difluoromethyl)-5^5-(hydroxymethyl)-6-oxo-3,7,11-trioxa-1(2,6)-pyridina-5(2,1)-pyrrolidina-2(1,4)-cyclohexanacycloundecaphane-5^3-yl)methanesulfonamide]: 98.4%; `C[C@@H]1C[C@H](NS(=O)(=O)N(C)C)[C@@H]2COC3CCC(CC3)c3cccc(c3)OCCCCOC(=O)N12` [Example 11, N′-((2^1S,2^4S,5^2R,5^3S,5^5R)-5^5-methyl-6-oxo-3,7,12-trioxa-5(2,1)-pyrrolidina-1(1,3)-benzena-2(1,4)-cyclohexanacyclododecaphane-5^3-yl)-N,N-dimethyl-sulfamide]: 101%. Same read-out and setting: next, `C[C@@H]1C[C@H](NS(C)(=O)=O)C2CO[C@H]3CC=C(CC3)c3cc(F)cc(c3)OCCCOC(=O)N21` (stereo partly shown) [Example 41]: 102%; `C[C@@H]1C[C@H](NS(=O)(=O)N(C)C)[C@@H]2COC3CCC(CC3)c3ccccc3CCOC(=O)N12` [Example 4, N′-((2′R,2^4R,5^2R,5^3S,5^5R)-5^5-methyl-6-oxo-3,7-dioxa-5(2,1)-pyrrolidina-1(1,2)-benzena-2(1,4)-cyclohexanacyclononaphane-5^3-yl)-N,N-dimethyl-sulfamide]: 101%. For `C[C@@H]1C[C@H](NS(=O)(=O)N(C)C)C2COC3CCC(CC3)c3cccc(c3)OCCCC(=O)N21` (stereo partly shown) [Example 14, N′-((2^1S,2^4S,5^2R, 5^3S,5^5R)-5^5-methyl-6-oxo-3,10-dioxa-5(2,1)-pyrrolidina-1(1,3)-benzena-2(1,4)-cyclohexana-cyclodecaphane-5^3-yl)-N,N-methyl-sulfamide], the Emax is 100%. Same read-out and setting: with `C[C@@H]1C[C@H](NS(C)(=O)=O)C2COC3CCC(CC3)c3cccc(c3)OCCCOC(=O)N21` (stereo partly shown) [Example 18, N-((2^1S,2^4S, 5^2R,5^3S,5^5R)-5^5-methyl-6-oxo-3,7,11-trioxa-5(2,1)-pyrrolidina-1(1,3)-benzena-2(1,4)-cyclohexana-cyclounde-caphane-5^3-yl) methanesulfonamide] the figure was 100%; with `COC[C@@H]1C[C@H](NS(C)(=O)=O)[C@@H]2COC3CCC(CC3)c3cccc(F)c3CCOC(=O)N12` [Example 6, N-((2^1R,2^4R,5^2R,5^3S, 5^5S)-1^3-fluoro-5^5-(methoxymethyl)-6-oxo-3,7-dioxa-5(2,1)-pyrrolidina-1(1,2)-benzena-2(1,4)-cyclo-hexanacyclonaphane-5^3-yl)methane sulfonamide], 100%.

The same assay, now with this note: hOX2R IP-One; percentage of mean max effect of a reference compound at 1 uM with 100% activity.
Regarding `CS(=O)(=O)NC1CCCN2C(=O)CCCOc3cccc(c3)C3CCC(C3)OCC12` (single isomer, unassigned) [Example 36, N-((2^1S,2^3R,5^2R,5^3S)-6-oxo-3,10-dioxa-5(2,1)-piperidina-1(1,3)-benzena-2(1,3)-cyclopentanacyclodecaphane-5^3-yl)methanesulfonamide], the “Emax (%)” value was determined as 103.3%.
